Results taken from publication PMC12048553, “Labels as a feature: Network homophily for systematically annotating human GPCR drug-target interactions” (Nature Communications, 2025).

Biological target: CHRM3 (Homo sapiens, UniProt P20309)
Test: yeast-expressed receptor NanoLuc screen at […], |Z-score| […]
Assay type: cell-based

CHRM3, sequence (P20309 whole entry): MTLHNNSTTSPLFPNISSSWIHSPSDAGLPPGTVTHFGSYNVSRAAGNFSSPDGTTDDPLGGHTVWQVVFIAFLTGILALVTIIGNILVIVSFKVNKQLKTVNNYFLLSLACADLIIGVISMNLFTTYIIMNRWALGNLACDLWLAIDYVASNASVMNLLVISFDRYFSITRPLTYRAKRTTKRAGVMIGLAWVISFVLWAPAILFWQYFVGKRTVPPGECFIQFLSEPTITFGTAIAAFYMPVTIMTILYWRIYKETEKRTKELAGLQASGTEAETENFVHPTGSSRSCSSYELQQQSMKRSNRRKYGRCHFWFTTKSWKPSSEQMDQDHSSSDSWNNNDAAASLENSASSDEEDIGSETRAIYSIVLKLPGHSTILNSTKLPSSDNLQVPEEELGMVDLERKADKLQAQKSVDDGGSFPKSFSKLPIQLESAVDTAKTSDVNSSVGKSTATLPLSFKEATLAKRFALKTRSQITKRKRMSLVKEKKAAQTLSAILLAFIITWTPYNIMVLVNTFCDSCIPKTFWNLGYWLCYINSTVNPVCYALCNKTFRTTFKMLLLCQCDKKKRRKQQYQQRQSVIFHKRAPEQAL

Structure (SMILES): CC(C)OC(=O)CCC/C=C\C[C@@H]1[C@@H](CC[C@@H](O)CCc2ccccc2)[C@H](O)C[C@@H]1O [Latanoprost]
- yeast-expressed receptor NanoLuc screen at 10 uM, |Z-score| > 3: Latanoprost for mitigating increased intraoccular pressure may be partially explained by the observed interaction with CHRM3
